This is an account of results in patent US20190203409A1, “ANTIBACTERIAL REGENERATED CELLULOSIC FIBERS AND PROCESS OF PREPARATION THEREOF” (GRASIM INDUSTRIES LIMITED, priority 2016, published 2019).

The subject of this assay is S. Aureus. The assay is described as follows: AATCC 147-2013 antibacterial test. Format: cell-based. The note with it: 0.5% concentration to weight of cellulose. The method, then: An antibacterial agent is used in Standard VSF or Modal or Lyocell manufacturing process to improve antibacterial performance of fiber. A small amount of chemical DDAC (i.e. 0.05-1% on weight of cellulose fiber) is infused by the way of: pouring or spraying or soaking or coating or padding or dipping and the like on the fiber during fiber manufacturing process and then fibers were dried and finally packed into the bales. The resultant fiber was then evaluated for antibacterial performance in external biological laboratory as per standard test methods.

`Oc1cc(Cl)ccc1Oc1ccc(Cl)cc1Cl` [Triclosan]: the “antibacterial activity (in words)” value is “did not demonstrate any antibacterial activity”.
